{"source": "paper PMC10124317", "about": "(Biochemistry, 2023)", "biological_target": "HDAC1 (Homo sapiens, UniProt Q13547)", "sequence (Q13547 whole entry)": "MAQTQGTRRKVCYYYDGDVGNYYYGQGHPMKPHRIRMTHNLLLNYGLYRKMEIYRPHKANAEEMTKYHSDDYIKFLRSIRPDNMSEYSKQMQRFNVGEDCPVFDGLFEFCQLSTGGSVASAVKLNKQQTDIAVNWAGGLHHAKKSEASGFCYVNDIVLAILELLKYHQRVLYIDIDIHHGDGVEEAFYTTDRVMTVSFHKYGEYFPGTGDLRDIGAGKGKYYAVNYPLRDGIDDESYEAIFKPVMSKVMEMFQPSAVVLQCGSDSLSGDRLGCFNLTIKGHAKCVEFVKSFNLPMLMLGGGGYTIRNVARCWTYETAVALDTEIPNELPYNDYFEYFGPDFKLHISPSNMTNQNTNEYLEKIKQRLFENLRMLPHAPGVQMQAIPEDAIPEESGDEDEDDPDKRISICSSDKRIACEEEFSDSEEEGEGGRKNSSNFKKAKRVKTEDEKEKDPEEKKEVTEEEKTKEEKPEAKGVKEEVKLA", "conditions": "HDAC1 0.1 μM preincubated 10 min with 5 μM TSA, then 1b or 2b", "data": [{"substance": "trichostatin A [TSA]", "values": [{"measurement": "covalent modification of HDAC1 remaining after preincubation with TSA", "result": "~ 10%"}]}]}
